We go through 13 compounds from PubChem BioAssay (NCI).

In brackets after ≈: the same amount, converted by molar mass.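 1) Cells in 96-well plates. 2) Compound, 48 h, 5 concentrations. 3) Linear interpolation between surrounding doses. 4) Unreached endpoint = highest concentration. At the GI50, growth is halved. TGI: concentration producing complete growth inhibition.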

Some test systems named below: ACHN renal; HS 578T breast; K-562 leukemia; M14 melanoma; RPMI-8226 leukemia; SK-MEL-2 melanoma; SNB-19 CNS; SW-620 colon; T-47D breast; CCRF-CEM leukemia.
What all share (test): growth of human tumour cells (NCI), 48 h

As for `Oc1ccc(CCc2cc(O)cc(O)c2)cc1`, the TGI in the experiment on ACHN renal, in the experiment on HS 578T breast, in the experiment on K-562 leukemia, with M14 melanoma, in the experiment with RPMI-8226 leukemia and in the experiment on SK-MEL-2 melanoma was over 100 µM throughout. Moreover, the TGI with SNB-19 CNS, in the experiment on SW-620 colon and in the experiment on T-47D breast was over 100 µM throughout.
As to `CC(=O)c1cc2ccccc2n(O)c1=N`, the TGI in the experiment with ACHN renal, in the experiment with CCRF-CEM leukemia, with HS 578T breast, with M14 melanoma, in the experiment with SK-MEL-2 melanoma and with T-47D breast was over 100 µM each time.
For `Cc1sc2ccccc2[n+]1CCC(=O)O`, the TGI in the experiment on ACHN renal, in the experiment with HS 578T breast, with K-562 leukemia, in the experiment with M14 melanoma, in the experiment on RPMI-8226 leukemia and in the experiment on SK-MEL-2 melanoma was over 100 µM throughout. Further, the TGI in the experiment on SNB-19 CNS, with SW-620 colon and in the experiment on T-47D breast was over 100 µM in each case.
`COc1ccc(/C=C2\N=C(c3ccccc3)N(C3Nc4cc5c(cc4S3)NC(N3C(=O)/C(=C/c4ccc(OC)cc4)N=C3c3ccccc3)S5)C2=O)cc1` (stereo not drawn): the TGI was over 100 µM in the experiment on ACHN renal; over 100 µM in the experiment on HS 578T breast; over 100 µM in the experiment on K-562 leukemia; over 100 µM in the experiment on M14 melanoma; 86.7 µM in the experiment with RPMI-8226 leukemia; 97.5 µM in the experiment with SK-MEL-2 melanoma. In addition, the TGI in the experiment on SW-620 colon and with T-47D breast was over 100 µM throughout.
In the case of `CC(C)N(C)C(=O)C12C3C4C1C1C2C3C41C#N` (stereo not drawn), the TGI in the experiment with ACHN renal, in the experiment with CCRF-CEM leukemia, in the experiment with HS 578T breast, in the experiment with K-562 leukemia, in the experiment on M14 melanoma and with SK-MEL-2 melanoma was over 100 µM each time. Further, the TGI in the experiment on SNB-19 CNS, in the experiment on SW-620 colon and in the experiment with T-47D breast was over 100 µM each time.
For the compound `COc1cccc(-c2cc(=O)c3ccc(C)nc3[nH]2)c1`, the TGI was over 100 µM in the experiment on ACHN renal; over 100 µM in the experiment with HS 578T breast; 0.0656 µM in the experiment with K-562 leukemia; over 100 µM in the experiment on M14 melanoma; 1.78 µM in the experiment on RPMI-8226 leukemia; over 100 µM with SK-MEL-2 melanoma. Moreover, the TGI in the experiment with SNB-19 CNS, in the experiment on SW-620 colon and with T-47D breast was over 100 µM in each case.
As for `c1ccc2c(Cc3nnc4sc(SSc5nn6c(Cc7c[nH]c8ccccc78)nnc6s5)nn34)c[nH]c2c1`, the TGI in the experiment with ACHN renal was over 100 µM; in the experiment with CCRF-CEM leukemia it was over 100 µM; with HS 578T breast it was 56.8 µM; in the experiment with K-562 leukemia, 46.5 µM; in the experiment on M14 melanoma, 37.2 µM; with SNB-19 CNS, over 100 µM. Besides, the TGI in the experiment on SW-620 colon is 37.6 µM; in the experiment with T-47D breast, over 100 µM.
As for `COc1cc(/C=C2/N=C(c3ccccc3)N(C3=NNC4(C(=O)N3)c3ccccc3-c3ccccc34)NC2=O)ccc1O`, the GI50 in the experiment on ACHN renal was 36.3 µg/mL; with CCRF-CEM leukemia, 46.3 µg/mL (≈ 83.2 µM); in the experiment with HS 578T breast, 19.8 µg/mL; in the experiment on K-562 leukemia it was 48.6 µg/mL; in the experiment with M14 melanoma, 34.7 µg/mL; in the experiment on RPMI-8226 leukemia, 50.2 µg/mL. Besides, the GI50 in the experiment on SNB-19 CNS was 34.6 µg/mL; with SW-620 colon, 31.1 µg/mL; in the experiment with T-47D breast, 17 µg/mL. Besides, the TGI in the experiment on ACHN renal is 123 µg/mL; with CCRF-CEM leukemia it was over 150 µg/mL; in the experiment on HS 578T breast, 42.5 µg/mL; with K-562 leukemia, over 150 µg/mL; in the experiment on M14 melanoma it was 105 µg/mL; in the experiment on RPMI-8226 leukemia, over 150 µg/mL. For the same compound, the TGI was 87.3 µg/mL in the experiment on SNB-19 CNS, 73.6 µg/mL in the experiment with SW-620 colon and 65 µg/mL in the experiment on T-47D breast.
Turning to `Clc1ccc(N=c2oc3ccccc3cc2-c2nc3ccccc3[nH]2)c(Cl)c1`, the TGI is over 100 µM in the experiment on ACHN renal; over 100 µM with CCRF-CEM leukemia; 78.3 µM with HS 578T breast; over 100 µM in the experiment on K-562 leukemia; over 100 µM in the experiment with M14 melanoma; over 100 µM with RPMI-8226 leukemia. Moreover, the TGI with SNB-19 CNS, in the experiment on SW-620 colon and in the experiment on T-47D breast was over 100 µM throughout.
Regarding `COc1cc(S(=O)(=O)Nc2ccc(C3=NNC(c4ccccc4)C3)cc2)ccc1F` (stereo not drawn), the GI50 with ACHN renal is 35.2 µM; with HS 578T breast, 16.7 µM; in the experiment on K-562 leukemia it was 28.3 µM; with M14 melanoma, 27.6 µM; with RPMI-8226 leukemia it was 21.6 µM; in the experiment with SK-MEL-2 melanoma it was over 100 µM. Further, the GI50 with SNB-19 CNS is over 100 µM; with SW-620 colon, 44.4 µM; in the experiment on T-47D breast, 54.2 µM. The TGI in the experiment on ACHN renal was over 100 µM; in the experiment on HS 578T breast it was 77.8 µM; in the experiment with K-562 leukemia, over 100 µM; with M14 melanoma, over 100 µM; in the experiment on RPMI-8226 leukemia, 73.1 µM; in the experiment with SK-MEL-2 melanoma, over 100 µM. Also, the TGI with SNB-19 CNS, with SW-620 colon and in the experiment with T-47D breast was over 100 µM throughout.
With `NNC(=S)N1CCN(C(=S)NN)CC1`, the TGI in the experiment with ACHN renal, in the experiment on CCRF-CEM leukemia, in the experiment on HS 578T breast, in the experiment with M14 melanoma, in the experiment on RPMI-8226 leukemia and in the experiment on SK-MEL-2 melanoma was over 100 µM throughout. The TGI in the experiment with SNB-19 CNS, in the experiment with SW-620 colon and in the experiment on T-47D breast was over 100 µM throughout.
As to `O=S1(=O)c2ccccc2NC(=S)CC1c1ccccc1` (stereo not drawn), the TGI in the experiment on ACHN renal, with CCRF-CEM leukemia, in the experiment on HS 578T breast, in the experiment with K-562 leukemia, in the experiment on M14 melanoma and with RPMI-8226 leukemia was over 100 µM each time. The TGI with SNB-19 CNS and with T-47D breast was over 100 µM in each case.
In the case of `CCc1c(C)c(C#N)c(=S)n(C2OC(CO)C(O)C(O)C2O)c1C` (stereo not drawn), the TGI in the experiment with ACHN renal, in the experiment with CCRF-CEM leukemia, in the experiment on K-562 leukemia, with M14 melanoma, in the experiment on SK-MEL-2 melanoma and in the experiment on SNB-19 CNS was over 100 µM throughout. In addition, the TGI with SW-620 colon and in the experiment on T-47D breast was over 100 µM in each case.
